Data published in US11351192B2, “De-colonization drug, preparation method therefor, and application thereof” (BEIJING HYGIENE & HEALTHCARE INNOVATION TECHNOLOGY CO., LTD., priority 2017, dated 2022).

System: multi-drug resistant bacteria
Type: in vivo, hospitalized patients
Excerpt: Using the case-control experiment, all newly-increased patients with multi-drug resistant bacteria in the cooperative hospital are selected for a period of time. The hospitalized patients are divided into the control group and the experimental group, and the control group is selected to be applied intranasally with mupirocin for 5 consecutive days and twice daily.
During the experiment, it can be found by electron microscopy at 200-fold whether mucosa has interstitial edema, inflammatory cell infiltration or surface epithelial cell shedding; it can show by electron microscopy at 6000-fold whether the mitochondria in the glandular epithelial cells are swollen or edema, it can show by electron microscopy at 10000-fold whether the morphology and structure of the ciliated epithelial cells is normal. FIGS. 1 and 2 are the electron microscopic images of the nasal mucosa by electron microscopy at 200-fold.

[1] = hospitalized patients, decolonization drug twice a day 3 days, mupirocin twice daily 5 days

## C/C(=C\C(=O)OCCCCCCCCC(=O)O)C[C@@H]1OC[C@H](C[C@@H]2O[C@H]2[C@@H](C)[C@H](C)O)[C@@H](O)[C@H]1O [mupirocin]
[1]
  cases of methicillin-resistant Staphylococcus aureus (MRSA): 35 cases
  cases of multi-drug resistant bacteria: 120 cases
  ratio of MRSA cases among multi-drug resistant bacteria cases: 29.16%
human, in vivo, 5 days
  adverse reactions (edema and hyperemia symptoms of nasal mucosa): 2
